The values below are quoted from earlier work in US20070065513A1, “Stable lansoprazole formulation” (priority 2003, published 2007).

Read-outs that look alike come from different tables or passages of the source.

Regarding `COc1ccc2[nH]c([S+]([O-])Cc3ncc(C)c(OC)c3C)nc2c1` (stereo not drawn) [Omeprazole, 5methoxy-2(((4-methoxy-3,5-dimethyl-2-pyridinyl)methyl)sulfinyl)-1H-benzimidazole], the half life is, setting by setting: (pH 6.5) 18 h; (pH 11) “about 300 days”. For the same compound, under “pH values below 4.0”, the half-life of degradation entry is recorded as “less than 10 minutes”.
